Results as given in patent US20260217767A1, “NOVEL A4B7 THIOETHER PEPTIDE DIMER ANTAGONISTS” (Protagonist Therapeutics, Inc., priority 2014, published 2026).
Values belong to the compound of their own block, whether it stands above or below them. *1 amine or outer side, *2 acyl side, *3 side chain or, on linkers, in order; H or OH if unused. Where a SMILES comes first, the peptide text is derived from it. Bridges are numbered along the chain shown (N, C = ends). Roman numbers before positions name the chains, in order. [ ]: non-standard residue; d: D form. Phe(4-tBu) = CC(C)(C)c1ccc(C[C@H](N)C(=O)O)cc1; Bip = N[C@@H](Cc1ccc(-c2ccccc2)cc1)C(=O)O; Diglycolyl = O=C(COCC(=O)[*:2])[*:1]; NMeR = CN[C@@H](CCCNC(=N)N)C(=O)O; Tic = O=C(O)[C@@H]1Cc2ccccc2CN1; β3hE = N[C@@H](CCC(=O)O)CC(=O)O; X1 = O=C(c1ccccc1C[*:2])[*:1]; Pen = CC(C)(S)[C@H](N)C(=O)O

Tests used:
[1] = tested on: CD4+/CD45RO+ memory T cells; test: PBMC Memory T Cell Adhesion Assay; assay type: cell-based, human; settings: thioether monomer peptides, Table 6
Method: PBMC Memory T Cell Adhesion Assay
Fresh CD4+/CD45RO+ memory T cells were isolated from human peripheral blood mononuclear cell (PBMC) donors by Aragen Bioscience Inc. (Morgan Hill, CA). The assay plate was prepared using IgG Fc capture antibody (donkey anti human) immobilized at 500 ng/well in 50 mM sodium bicarbonate buffer, pH 9.5, ON, 4 C onto a Greiner Fluotrac plate (100 ul per well). The plate was rinsed two time with Blocking Buffer (25 mM Tris HCl, pH7.5, 150 mM NaCl, 1.5% BSA, 0.05% Tween), and blocked with Blocking Buffer for 2 hours at 37 C or 5 hours at RT using 200 ul per well. The Blocking Buffer was removed and either MAdCAM-1 or VCAM-1 at 400 ng/well in Blocking Buffer was added and the plate incubated overnight at 4 C (100 ul per well). The plate was washed two times with Blocking Buffer, and rinsed once with 200 ul Binding Media (DMEM phenol red free, 10 mM HEPES, 1×Na pyruvate, 1× Glutamine, and supplemented with 1 mM MnC12 prior to use). To prepare cells, approximately 25 million CD4+/CD45RO+ memory T cells were counted by trypan blue exclusion using a haemocytometer to determine viability and cell count. The cells were transferred to a 50 ml conical tube, and centrifuged at 1200 rpm for 10 minute. The media was aspirated and the cell pellet resuspended in 15 ml Binding Media. The cells were centrifuged again and resuspended in the appropriate amount of Binding Media to be used for assays (50 ul of cells per well at 2× the final density). To each well, and equal volume (50 ul) of test compound was added and the plate was incubated for 1.5 hours at 37 C, 5% CO2. Each well was rinsed 3× with 150 ul per well of Binding Media. […] The plate was incubated at 37 C, 5% CO2, for 45 minutes. The plate was protected from light by using black adhesive seals. Fluorescence intensity was measured using a Molecular Devices Gemini EM Fluorescent Plate Reader (Ex 485/Em530, Bottom Read, Reading Sensitivity=20). IC50 curves are generated using Graph Pad Prism and the curves analyzed using analyzed using a non-linear regression (four parameters) algorithm. The log (concentration) versus RFU (Ex485/Em530) was plotted to determine IC50 values.

[2] = Simulated Gastric Fluid (SGF) Stability Assay; assay type: in vitro ADME; settings: pig, pH 2, 37° C., dimers, Table 7; for half-life at 20 μM: simulated gastric fluid (SGF) with porcine pepsin; for half-life: simulated gastric fluid (with porcine pepsin)
Method: Simulated Gastric Fluid (SGF) Stability Assays
Studies were carried out in simulated gastric fluid (SGF) to evaluate intestinal stability of the peptide molecules of the instant invention. SGF was prepared by adding 20 mg NaCl, 32 mg porcine pepsin (MP Biochemicals, catalog 02102599), and 70 μl HCl to 10 ml water (final pH=2). Aliquots of SGF (0.5 ml each) were pre-warmed at 37° C. To start the reaction, 1 μl of peptide stock solution (10 mM in DMSO) was added to 0.5 ml SGF and thoroughly mixed such that the final peptide concentration was 20 μM. The reactions were incubated at 37° C. with gentle shaking. At each time point (0, 15, 30, 60 min) 50 μl aliquots were removed and added to 200 μl acetonitrile containing 0.1% formic acid to quench the reaction. Samples are stored at 4° C. until the end of the experiment and centrifuged at 10,000 rpm for 5 minutes. Aliquots of the supernatant were removed, diluted 1:1 into distilled water containing internal standard, and analyzed by LCMS/MS. Percent remaining at each timepoint was calculated based on the peak area response ratio of test to compound to internal standard. Time 0 was set to 100%, and all later timepoints were calculated relative to time 0. Half-lives were calculated by fitting to a first-order exponential decay equation using GraphPad.

Structure (SMILES): CC(C)C[C@@H]1NC(=O)[C@H]([C@@H](C)O)NC(=O)[C@H](CC(=O)O)NC(=O)[C@H](CO)NC(=O)[C@H](CCCNC(=N)N)N(C)C(=O)c2ccccc2CSC(C)(C)[C@@H](C(=O)N[C@@H](Cc2c[nH]c3ccccc23)C(=O)N[C@H](CCC(=O)O)C(=O)N[C@@H](Cc2ccccc2)C(N)=O)NC1=O [compound 101] (HELM PEPTIDE1{[meR].S.D.T.L.[Pen].W.[dE].F.[am]}|CHEM1{[O=C(c1ccccc1C[*:2])[*:1]]}$PEPTIDE1,CHEM1,1:R1-1:R1|PEPTIDE1,CHEM1,6:R3-1:R2$$$V2.0)
IC50 [1]: 100 to 1000 nM

Structure (SMILES): CC(C)C[C@@H]1NC(=O)[C@H]([C@@H](C)O)NC(=O)[C@H](CC(=O)O)NC(=O)[C@H](CO)NC(=O)[C@H](CCCNC(=N)N)N(C)C(=O)c2ccccc2CSC(C)(C)[C@@H](C(=O)N[C@@H](Cc2ccc(-c3ccccc3)cc2)C(=O)N[C@@H](CCC(=O)O)CC(N)=O)NC1=O [compound 133] ([NMeR]SDTL[Pen][Bip][β3hE]-NH2; linker N-6 via X1)
IC50 [1]: 100 to 1000 nM

Structure (SMILES): CC(C)C[C@@H]1NC(=O)[C@H]([C@@H](C)O)NC(=O)[C@H](CC(=O)O)NC(=O)[C@H](CO)NC(=O)[C@H](CCCNC(=N)N)N(C)C(=O)c2ccccc2CSC(C)(C)[C@@H](C(=O)N[C@@H](Cc2ccc(C(C)(C)C)cc2)C(=O)N[C@@H](CCC(=O)O)CC(N)=O)NC1=O [compound 134] ([NMeR]SDTL[Pen][Phe(4-tBu)][β3hE]-NH2; linker N-6 via X1)
IC50 [1]: 25 to 100 nM

Structure (SMILES): CC(C)C[C@@H]1NC(=O)[C@H]([C@@H](C)O)NC(=O)[C@H](CC(=O)O)NC(=O)[C@H](CO)NC(=O)[C@H](CCCNC(=N)N)N(C)C(=O)c2ccccc2CSC(C)(C)[C@@H](C(=O)N[C@@H](Cc2ccc(-c3ccccc3)cc2)C(=O)N[C@H](CCC(=O)O)C(=O)N[C@H](CCCCN)C(N)=O)NC1=O [compound 178] (HELM PEPTIDE1{[meR].S.D.T.L.[Pen].[O=C([C@H](Cc1ccc(-c2ccccc2)cc1)N[*:1])[*:2]].[dE].[dK].[am]}|CHEM1{[O=C(c1ccccc1C[*:2])[*:1]]}$PEPTIDE1,CHEM1,1:R1-1:R1|PEPTIDE1,CHEM1,6:R3-1:R2$$$V2.0)
half-life at 20 μM [2]: > 3 h

half-life at 20 μM [2]: > 3 h
Structure (SMILES): CC(C)C[C@@H]1NC(=O)[C@H]([C@@H](C)O)NC(=O)[C@H](CC(=O)O)NC(=O)[C@H](CO)NC(=O)[C@H](CCCNC(=N)N)N(C)C(=O)c2ccccc2CSC[C@@H](C(=O)N2Cc3ccccc3C[C@H]2C(=O)N[C@H](CCC(=O)O)C(=O)N[C@H](CCCCNC(=O)COCC(=O)NCCCC[C@@H](NC(=O)[C@@H](CCC(=O)O)NC(=O)[C@@H]2Cc3ccccc3CN2C(=O)[C@@H]2CSCc3ccccc3C(=O)N(C)[C@@H](CCCNC(=N)N)C(=O)N[C@@H](CO)C(=O)N[C@@H](CC(=O)O)C(=O)N[C@@H]([C@@H](C)O)C(=O)N[C@@H](CC(C)C)C(=O)N2)C(N)=O)C(N)=O)NC1=O [compound 184] (I: [NMeR]SDTLC[Tic][dE][dK]-NH2 / II: [NMeR]SDTLC[Tic][dE][dK]-NH2; linker I:9-II:9 via Diglycolyl; linker I:N-I:6, II:N-II:6 via X1)

Structure (SMILES): CC(C)C[C@@H]1NC(=O)[C@H]([C@@H](C)O)NC(=O)[C@H](CC(=O)O)NC(=O)[C@H](CO)NC(=O)[C@H](CCCNC(=N)N)N(C)C(=O)c2ccccc2CSC(C)(C)[C@@H](C(=O)N[C@@H](Cc2ccccc2)C(=O)N[C@H](CCC(=O)O)C(=O)N[C@H](CCCCNC(=O)COCC(=O)NCCCC[C@@H](NC(=O)[C@@H](CCC(=O)O)NC(=O)[C@H](Cc2ccccc2)NC(=O)[C@H]2NC(=O)[C@H](CC(C)C)NC(=O)[C@H]([C@@H](C)O)NC(=O)[C@H](CC(=O)O)NC(=O)[C@H](CO)NC(=O)[C@H](CCCNC(=N)N)N(C)C(=O)c3ccccc3CSC2(C)C)C(=O)O)C(=O)O)NC1=O [compound 204] (I: [NMeR]SDTL[Pen]F[dE][dK]-OH / II: [NMeR]SDTL[Pen]F[dE][dK]-OH; linker I:9-II:9 via Diglycolyl; linker I:N-I:6, II:N-II:6 via X1)
half-life [2]: > 3 h

Structure (SMILES): CC(C)C[C@@H]1NC(=O)[C@H]([C@@H](C)O)NC(=O)[C@H](CC(=O)O)NC(=O)[C@H](CO)NC(=O)[C@H](CCCNC(=N)N)N(C)C(=O)c2ccccc2CSC[C@@H](C(=O)N2Cc3ccccc3C[C@H]2C(=O)N[C@H](CCC(=O)O)C(=O)N[C@H](CCCCNC(=O)COCC(=O)NCCCC[C@@H](NC(=O)[C@@H](CCC(=O)O)NC(=O)[C@@H]2Cc3ccccc3CN2C(=O)[C@@H]2CSCc3ccccc3C(=O)N(C)[C@@H](CCCNC(=N)N)C(=O)N[C@@H](CO)C(=O)N[C@@H](CC(=O)O)C(=O)N[C@@H]([C@@H](C)O)C(=O)N[C@@H](CC(C)C)C(=O)N2)C(=O)O)C(=O)O)NC1=O [compound 207] (I: [NMeR]SDTLC[Tic][dE][dK]-OH / II: [NMeR]SDTLC[Tic][dE][dK]-OH; linker I:9-II:9 via Diglycolyl; linker I:N-I:6, II:N-II:6 via X1)
half-life [2]: > 3 h

Structure (SMILES): CC(C)C[C@@H]1NC(=O)[C@H]([C@@H](C)O)NC(=O)[C@H](CC(=O)O)NC(=O)[C@H](CO)NC(=O)[C@H](CCCNC(=N)N)N(C)C(=O)c2ccccc2CSC(C)(C)[C@@H](C(=O)N[C@@H](Cc2ccc(-c3ccccc3)cc2)C(=O)N[C@H](CCC(=O)O)C(=O)N[C@H](CCCCNC(=O)COCC(=O)NCCCC[C@@H](NC(=O)[C@@H](CCC(=O)O)NC(=O)[C@H](Cc2ccc(-c3ccccc3)cc2)NC(=O)[C@H]2NC(=O)[C@H](CC(C)C)NC(=O)[C@H]([C@@H](C)O)NC(=O)[C@H](CC(=O)O)NC(=O)[C@H](CO)NC(=O)[C@H](CCCNC(=N)N)N(C)C(=O)c3ccccc3CSC2(C)C)C(=O)O)C(=O)O)NC1=O [compound 208] (I: [NMeR]SDTL[Pen][Bip][dE][dK]-OH / II: [NMeR]SDTL[Pen][Bip][dE][dK]-OH; linker I:9-II:9 via Diglycolyl; linker I:N-I:6, II:N-II:6 via X1)
half-life [2]: > 3 h
